Data as given in US20170112108A1, “GENETICALLY MODIFIED NON-HUMAN MAMMALS HAVING MODIFIED LIVER CELLS AND/OR TISSUE AND METHODS OF MAKING SAME” (priority 2015, published 2017).
Like-named read-outs stand apart in the source and are kept apart here.

Legend:
human liver = conditions: in vivo, cited from earlier work
rats = conditions: bosentan-treated rats; cited from earlier work
[1] = test system: clinical trial participants; conditions: of 15 clinical trial participants; cited from earlier work
[2] = test system: mice, rats, dogs and primates; conditions: cited from earlier work
rat liver = assay: Serum ALT after GCV in neonatal rats given rAAV-PB-HSVtk and rAAV-PBo; assay type: in vivo; conditions: 50 mg/kg GCV, 2 injections 2 days apart, 2 weeks after rAAV-PB-HSVtk and rAAV-PBo (5e10 vector genomes each); serum one week later
Protocol: 20% targeted delivery is insufficient to induce desirable liver damage with ganciclovir (GCV). Three day old neonatal rats were injected with 5e10 vector genomes each of rAAV-PB-HSVtk and rAAV-PBo per animal. Due to the stable integration and expression of suicide gene HSVtk mediated by piggyBac transposon multiple injections of ganciclovir (GCV) can be administered over a prolonged period of time. 2 weeks later, each animal was injected with 50 mg/kg GCV (2 injections, 2 days apart). One week later blood serum was collected and analyzed for elevated ALT levels, which is indicative of liver damage. […] ALT levels in the 200-300 range in desirable prior to transplantation of human hepatocytes.

Compound | human-specific hepatotoxicity (human liver) | human-specific hepatotoxicity (human liver; listed as Bosetan) | hepatotoxicity in rats (rats) | participants who developed acute liver failure [1] | participants who died [1] | participants who required a liver transplant [1] | outcome of preclinical toxicology studies [2] | serum ALT levels (liver damage) (rat liver)
COc1ccccc1Oc1c(NS(=O)(=O)c2ccc(C(C)(C)C)cc2)nc(-c2ncccn2)nc1OCCO [Bosentan] | causes hepatotoxicity in a human-specific manner | known to cause human-specific hepatotoxicity | do not develop hepatotoxicity |  |  |  |  | 
O=c1[nH]c(=O)n([C@@H]2O[C@H](CO)[C@@H](O)[C@@H]2F)cc1I [FIAU] | known to cause human-specific hepatotoxicity |  |  | seven | five | two | cleared all preclinical toxicology studies | 
Nc1nc(O)c2ncn(COC(CO)CO)c2n1 [GCV, ganciclovir] |  |  |  |  |  |  |  | normal ALT levels
